Laboratory results: publication PMC6349357, “Computational and experimental analysis of bioactive peptide linear motifs in the integrin adhesome” (PLoS ONE, 2019)

What was measured:
resting platelets = experiment: Platelet aggregation induced by peptide in resting washed platelets (activation); type: cell-based, human (healthy volunteers); settings: for Activation: platelet aggregation in resting platelets after 6 minutes incubation with peptide, pal-peptides 20 μM, tat-peptides 50 μM, optical density, aggregometer, mean, n>=3; for Aggregation before TRAP activation, donor h: replicate donor h; for Aggregation before TRAP activation, donor h / Aggregation before TRAP activation, donor i / Aggregation before TRAP activation, donor j: pal 20 μM, tat 50 μM; for Aggregation before TRAP activation, donor i: replicate donor i; for Aggregation before TRAP activation, donor j: replicate donor j; for Activation, 5μM / Activation, 20μM: S3 Table, n=3; for Activation, 5μM: peptide 5 μM; for Activation, 20μM: peptide 20 μM
Description: (§1) Blood was drawn from healthy volunteers into a syringe containing a final volume of 15% Acid Citrate Dextrose (ACD). The blood/ACD mixture was then aliquoted into 15 ml Cellstar tubes, at volumes of 5ml per tube, and centrifuged at 150 rcf for 10 minutes to obtain platelet rich plasma (PRP). PRP was then transferred to a 50ml tube using a pipette. The pH was then adjusted to 6.5. Prostaglandin (PGE1) was then added with a final concentration of 1μM. The PRP was then centrifuged at 750 rcf. After centrifugation the platelet poor plasma (PPP) was discarded and the pellet was resuspended in buffer A (6 mM dextrose, 130 mM NaCl, 9 mM NaHCO3, 10 mM sodium citrate, 10 mM Tris base, 3 mM KCl, 0.81 mM KH2PO4 and 0.9 mM MgCl26H2O, pH 7.4). A platelet concentration of 3x10^5/μl or 1x10^6/μl was obtained by dilution depending on the experiment in which they were used. Platelets were left to rest for 45 minutes and supplemented with 1.8mM calcium chloride prior to use.
(§2) A platelet concentration of 3x10^5 /μl was used when performing standard aggregations and a concentration of 1x10^6 /μl was used for sample preparation for western blot analysis. The extent of platelet aggregation was measured by quantifying the optical density of the samples using the Bio-Data PAP-8 aggregometer (platelet aggregation profiler, Horsham, PA, USA). A temperature of 37°C was maintained and samples were stirred using magnets spinning at 1100 rpm. 200 μl of washed platelets was added to each aggregation tube. Different volumes of buffer, peptide and TRAP were added to achieve the desired concentrations. Peptide/buffer was added to each well after two minutes. TRAP, with a final concentration depending on the experiment, was added 6 minutes later and data was collected for an additional 7 minutes.

TRAP-activated platelets = experiment: Inhibition of TRAP-induced platelet aggregation after pre-incubation with peptide; type: cell-based, human (healthy volunteers); settings: for Aggregation after TRAP activation, donor h: replicate donor h; for Aggregation after TRAP activation, donor h / Aggregation after TRAP activation, donor i / Aggregation after TRAP activation, donor j: pal 20 μM, tat 50 μM; for Aggregation after TRAP activation, donor i: replicate donor i; for Aggregation after TRAP activation, donor j: replicate donor j
Description: as §1, §2

[1] = platelet aggregation induced by 4 μM TRAP in platelets pre-incubated with peptide (low value = inhibition), pal-peptides 20 μM, tat-peptides 50 μM, mean, n>=3
[2] = S3 Table, peptide 5 μM, aggregation after TRAP, n=3
[3] = S3 Table, peptide 20 μM, aggregation after TRAP, n=3

## SSTLSKKRPPPPPPGHKRTLSD-tat-(NH2) [AMAP1-tat, ASAP1/DDEF2 peptide with C-terminal tat]
Resting platelets; unit assumed
  Activation: 4%
Resting platelets
  Aggregation before TRAP activation, donor h: 4
  Aggregation before TRAP activation, donor i: 3
  Aggregation before TRAP activation, donor j: 5
TRAP-activated platelets; [1]
  Platelet aggregation remaining after TRAP (low = inhibition): 72
TRAP-activated platelets; TRAP 4 μM
  Aggregation after TRAP activation, donor h: 76
  Aggregation after TRAP activation, donor i: 62
  Aggregation after TRAP activation, donor j: 79

## YKDSMERDKGK [pal-SDC4_JM Control 1, scrambled control of pal-SDC4_JM, reference compound]
Resting platelets; S2 Fig A legend, three doses 1, 5, 20 μM
  Effects on activation of aggregation at 1, 5 and 20 μM: activatory effects
Resting platelets; replicate 14_06_13, SDC4 peptides and controls, 20 μM, unit assumed
  Activation, donor 14 06 13: 69%
Resting platelets; replicate 18_06_13, SDC4 peptides and controls, 20 μM, in % (unit assumed)
  Activation, donor 18_06_13: 68
Resting platelets; replicate 20_06_13, SDC4 peptides and controls, 20 μM, in % (unit assumed)
  Activation, donor 20_06_13: 66
Resting platelets; replicate 20_08_13, SDC4 peptides and controls, 20 μM, unit assumed
  Activation, donor 20 08 13: 70%
Resting platelets; replicate 22_08_13_DONOR1, SDC4 peptides and controls, 20 μM
  Activation, donor 22_08_13_DONOR1: 71
Resting platelets; replicate 22_08_13_DONOR2, SDC4 peptides and controls, 20 μM
  Activation, donor 22_08_13_DONOR2: 65
TRAP-activated platelets; S2 Table B / S2 Fig, 20 μM, activation of resting platelets and inhibition of aggregation induced by 4 μM TRAP, in words
  Summary of effects of SDC4-derived palmitylated peptides and scrambled controls, 20μM: Activator
TRAP-activated platelets; replicate 14_06_13, peptide 20 μM, TRAP 4 μM
  Inhibition, donor 14_06_13: 76
TRAP-activated platelets; replicate 18_06_13, peptide 20 μM, TRAP 4 μM
  Inhibition, donor 18_06_13: 72
TRAP-activated platelets; replicate 20_06_13, peptide 20 μM, TRAP 4 μM
  Inhibition, donor 20_06_13: 71
TRAP-activated platelets; replicate 20_08_13, peptide 20 μM, TRAP 4 μM
  Inhibition, donor 20_08_13: 71
TRAP-activated platelets; replicate 22_08_13_DONOR1, peptide 20 μM, TRAP 4 μM
  Platelet aggregation remaining after TRAP (low = inhibition): 68
TRAP-activated platelets; replicate 22_08_13_DONOR2, peptide 20 μM, TRAP 4 μM
  Platelet aggregation remaining after TRAP (low = inhibition): 70

## pal-FAKFEEERAR-(NH2) [pal-ITGB3_middle1, N-terminally palmitylated ITGB3 peptide …]
Resting platelets; unit assumed
  Activation, 5μM: 2%
  Activation, 20μM: 2%
  Activation: 0%
Resting platelets
  Aggregation before TRAP activation, donor h: 1
  Aggregation before TRAP activation, donor i: 1
  Aggregation before TRAP activation, donor j: 0
TRAP-activated platelets; [2]
  Platelet aggregation remaining after TRAP (low = inhibition): 73
TRAP-activated platelets; [3]
  Platelet aggregation remaining after TRAP (low = inhibition): 68
TRAP-activated platelets; TRAP 2 μM after 6 minutes pre-incubation, 4 μM pal-peptides, 10 μM tat-peptides, mean n = 3
  Aggregation after TRAP, peptide alone 1x (A 1x / B 1x): 67.67
TRAP-activated platelets; TRAP 2 μM after 6 minutes pre-incubation, double concentration of 4 μM (pal) / 10 μM (tat), mean n = 3
  Aggregation after TRAP, peptide alone 2x (A 2x / B 2x): 43.67
TRAP-activated platelets; [1]
  Platelet aggregation remaining after TRAP (low = inhibition): 45
TRAP-activated platelets; TRAP 4 μM
  Aggregation after TRAP activation, donor h: 64
  Aggregation after TRAP activation, donor i: 60
  Aggregation after TRAP activation, donor j: 12

## pal-KVGAAKR [pal-ITGA2bJM2]
Resting platelets; unit assumed
  Activation, 5μM: 1%
  Activation, 20μM: 1%
TRAP-activated platelets; [2]
  Platelet aggregation remaining after TRAP (low = inhibition): 28
TRAP-activated platelets; [3]
  Platelet aggregation remaining after TRAP (low = inhibition): 3

## pal-KVGAAKR-FAKFEEERAR [B14p ITGA2b-JM2 U ITGB3-middle1, palmitylated chimeric peptide]
Resting platelets; unit assumed
  Activation, 5μM: 2%
  Activation, 20μM: 0%
TRAP-activated platelets; [2]
  Platelet aggregation remaining after TRAP (low = inhibition): 71
TRAP-activated platelets; [3]
  Platelet aggregation remaining after TRAP (low = inhibition): 3

## pal-KVGAAKR-LGKKPIYKK [B19p ITGA2b-JM2 U SDC4-middle, palmitylated chimeric peptide]
Resting platelets; unit assumed
  Activation, 5μM: 2%
  Activation, 20μM: 3%
TRAP-activated platelets; [2]
  Platelet aggregation remaining after TRAP (low = inhibition): 66
TRAP-activated platelets; [3]
  Platelet aggregation remaining after TRAP (low = inhibition): 6

## pal-KVGAAKR-RMKKKDEGSYD [B16p ITGA2b-JM U SDC4-JM, palmitylated chimeric peptide]
Resting platelets; unit assumed
  Activation, 5μM: 3%
  Activation, 20μM: 0%
TRAP-activated platelets; [2]
  Platelet aggregation remaining after TRAP (low = inhibition): 72
TRAP-activated platelets; [3]
  Platelet aggregation remaining after TRAP (low = inhibition): 4

## pal-KVGAAKR-TLELDRLMASLS [B21p ITGA2b-JM2 U TGFB1I1-LD, palmitylated chimeric peptide]
Resting platelets; unit assumed
  Activation, 5μM: 2%
  Activation, 20μM: 1%
TRAP-activated platelets; [2]
  Platelet aggregation remaining after TRAP (low = inhibition): 70
TRAP-activated platelets; [3]
  Platelet aggregation remaining after TRAP (low = inhibition): 28
